Earlier results on one substance are cited in US5891679A, “TNF-alpha muteins and a process for preparing them” (priority 1993, dated 1999).

Entries after “also recorded” stand apart in the source; their conditions may differ.

The subject of one series is LPS-induced shock. The note with it: cited from earlier work.
Another series concerns L929 cells. The note with it: cited from earlier work.

“uromodulin: glycoprotein which binds TNF-α via its lectin-like domain”: in the series on LPS-induced shock, the “effect on LPS-/TNF-/endotoxin-induced shock in vivo” value is “able to potently inhibit the TNF-induced shock in vivo; also recorded: able to potently inhibit the LPS-induced shock in vivo”. Also, in the series with L929 cells, the “effect on TNF-α cytotoxic/tumoricidal activity” value is recorded as “does not block the tumoricidal activity of TNF-α”.
